Source: US20110160594A1 (priority 2008, published 2011)

tested on: Pyricularia oryzae; type: cell-based; details: liquid culture, incubation with compound 24-48 h

| Compound | branch of the dendrogram of IR spectra (FIG. 8) |
| --- | --- |
| COC(=O)N(OC)c1ccccc1COc1ccn(-c2ccc(Cl)cc2)n1 [pyraclostrobin] | clustered together in the second branch |
| propioconazole | third branch of the dendrogram |
| Fc1ccc([C@]2(Cn3cncn3)O[C@H]2c2ccccc2Cl)cc1 (racemic) [epoxiconazole] | third branch of the dendrogram |
| CO/C=C(/C(=O)OC)c1ccccc1Oc1cc(Oc2ccccc2C#N)ncn1 [azoxystrobin] | clustered together in the second branch |
| CNC(=O)/C(=N/OC)c1ccccc1CO/N=C(C)/C(=N/OC)C(/C)=N/OC [orysastrobin] | clustered together in the second branch |
| CCCCC(C#N)(Cn1cncn1)c1ccc(Cl)cc1 (stereo not drawn) [myclobutanil] | third branch of the dendrogram |
